Several values for one entry are separate records, joined by “and”; a condition that tells them apart may be missing. Equal values may be shown once. Toxic doses and inconclusive results are not listed. The calls were made as follows: active = survival T/C of 150% or more; inactive = T/C below 125% in these data.
Tested on: P388 leukemia ip, CD2F1 mice, survival T/C
Test: NCI In Vivo Anticancer Drug Screen. Data for tumor model P388 Leukemia (intraperitoneal) in CD2F1 (CDF1) mice
Settings: endpoint: median survival time, higher = longer survival
How it was run: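 Mice carrying the transplanted tumor received test compound or vehicle. Survival was recorded in each group, and the value is the treated-group measurement divided by that of the vehicle-treated control group.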

[1] = dose: 50.0 mg/kg/injection, schedule: Q01DX009 (ip), vehicle: Klucel (hydroxypropylcellulose) (HPC)
[2] = dose: 100.0 mg/kg/injection, schedule: Q01DX009 (ip), vehicle: Klucel (hydroxypropylcellulose) (HPC)
[3] = dose: 200.0 mg/kg/injection, schedule: Q01DX009 (ip), vehicle: Klucel (hydroxypropylcellulose) (HPC)
[4] = dose: 60.0 mg/kg/injection, schedule: Q01DX005 (ip), vehicle: Klucel (hydroxypropylcellulose) (HPC)
[5] = dose: 120.0 mg/kg/injection, schedule: Q01DX005 (ip), vehicle: Klucel (hydroxypropylcellulose) (HPC)
[6] = dose: 240.0 mg/kg/injection, schedule: Q01DX005 (ip), vehicle: Klucel (hydroxypropylcellulose) (HPC)
[7] = dose: 12.5 mg/kg/injection, schedule: Q01DX009 (ip), vehicle: saline

Measured: T/C

CCCCCCCNC1=C(N2CC2)C(=O)C(NCCCCCCC)=C(N2CC2)C1=O
inactive: dose: 1.25 mg/kg/injection, schedule: Q01DX009 (ip), vehicle: saline 100 % of control | dose: 2.5 mg/kg/injection, schedule: Q01DX009 (ip), vehicle: saline 105 % of control and 107 % of control | dose: 5.0 mg/kg/injection, schedule: Q01DX009 (ip), vehicle: saline 105 % of control and 106 % of control | dose: 10.0 mg/kg/injection, schedule: Q01DX009 (ip), vehicle: saline 106 % of control and 94 % of control | dose: 20.0 mg/kg/injection, schedule: Q01DX009 (ip), vehicle: saline 115 % of control and 90 % of control

O/N=C(/CN1CCOCC1)c1ccccc1
inactive: [1] 105 % of control | [2] 100 % of control | [3] 102 % of control

C1CC[C@@]2([C@]34CCCC[C@H]3O4)O[C@H]2C1
inactive: [4] 99 % of control | [5] 98 % of control | [6] 95 % of control and 96 % of control

CC12CCC3C(C1)C(C(=O)O2)C(=O)OC3(C)C (centres undefined)
inactive: [1] 93 % of control | [2] 101 % of control | [3] 97 % of control

Cc1cc2c(=O)cc(-c3ccccc3)oc2c(C#N)c1C
inactive: [4] 99 % of control | [5] 94 % of control | [6] 93 % of control

CCOC(=O)N1CCN(CC(O)Cn2c(=O)c3c(nc(N4CCN(C(=O)OCC)CC4)n3C)n(C)c2=O)CC1 (centres undefined)
inactive: [1] 100 % of control | [2] 101 % of control | [3] 99 % of control

COc1cccc2c1C(=O)c1c(O)c3c(c(O)c1C2=O)CC(O)(C(C)=O)CC3OC1CC(NC2=CC(=O)CC(C)(C)C2)C(O)C(C)O1 (centres undefined)
inactive: dose: 3.13 mg/kg/injection, schedule: Q04DX003 (ip), vehicle: distilled water + Tween-80 103 % of control | dose: 6.25 mg/kg/injection, schedule: Q04DX003 (ip), vehicle: distilled water + Tween-80 103 % of control | dose: 12.5 mg/kg/injection, schedule: Q04DX003 (ip), vehicle: distilled water + Tween-80 100 % of control | dose: 25.0 mg/kg/injection, schedule: Q04DX003 (ip), vehicle: distilled water + Tween-80 100 % of control | dose: 50.0 mg/kg/injection, schedule: Q04DX003 (ip), vehicle: distilled water + Tween-80 109 % of control

[CH3][Ga][CH3].[CH3][Ga][CH3].[CH3][Ga][CH3].[CH3][Ga][CH3].[OH3+].[OH3+].[OH3+].[OH3+]
inactive: dose: 5.0 mg/kg/injection, schedule: Q04DX003 (ip), vehicle: saline with Tween-80 90 % of control | dose: 10.0 mg/kg/injection, schedule: Q04DX003 (ip), vehicle: saline with Tween-80 90 % of control

COc1cc(C[C@H]2c3cc(OC)c(OC)cc3CCN2C)c(Oc2cc3c(cc2OC)-c2c(OC)c(OC)cc4c2[C@H](C3)N(C)CC4)cc1OC
inactive: dose: 2.5 mg/kg/injection, schedule: Q03HX016 (ip), vehicle: saline 90 % of control | dose: 2.5 mg/kg/injection, schedule: Q03HX024 (ip), vehicle: saline 95 % of control | dose: 5.0 mg/kg/injection, schedule: Q03HX008 (ip), vehicle: saline 91 % of control | dose: 5.0 mg/kg/injection, schedule: Q03HX016 (ip), vehicle: saline 100 % of control | dose: 5.0 mg/kg/injection, schedule: Q03HX024 (ip), vehicle: saline 95 % of control | dose: 6.25 mg/kg/injection, schedule: Q01DX009 (ip), vehicle: saline 90 % of control | dose: 10.0 mg/kg/injection, schedule: Q01DX009 (ip), vehicle: distilled water + Tween-80 96 % of control | dose: 10.0 mg/kg/injection, schedule: Q03HX008 (ip), vehicle: saline 95 % of control | dose: 10.0 mg/kg/injection, schedule: Q03HX016 (ip), vehicle: saline 100 % of control | dose: 10.0 mg/kg/injection, schedule: Q03HX024 (ip), vehicle: saline 95 % of control | [7] 104 % of control | dose: 12.5 mg/kg/injection, schedule: Q01DX009 (oral), vehicle: saline 100 % of control | dose: 20.0 mg/kg/injection, schedule: Q01DX009 (ip), vehicle: distilled water + Tween-80 92 % of control | dose: 20.0 mg/kg/injection, schedule: Q03HX008 (ip), vehicle: saline 100 % of control | dose: 20.0 mg/kg/injection, schedule: Q03HX016 (ip), vehicle: saline 100 % of control | dose: 20.0 mg/kg/injection, schedule: Q03HX024 (ip), vehicle: saline 100 % of control | dose: 25.0 mg/kg/injection, schedule: Q01DX009 (ip), vehicle: saline 109 % of control | dose: 25.0 mg/kg/injection, schedule: Q01DX009 (oral), vehicle: saline 100 % of control | dose: 25.0 mg/kg/injection, schedule: Q04DX003 (ip), vehicle: saline 100 % of control | dose: 25.0 mg/kg/injection, schedule: Q08DX002 (ip), vehicle: saline 100 % of control | dose: 40.0 mg/kg/injection, schedule: Q01DX009 (ip), vehicle: distilled water + Tween-80 92 % of control | dose: 40.0 mg/kg/injection, schedule: Q03HX008 (ip), vehicle: saline 100 % of control | dose: 40.0 mg/kg/injection, schedule: Q03HX016 (ip), vehicle: saline 109 % of control | dose: 40.0 mg/kg/injection, schedule: Q03HX024 (ip), vehicle: saline 95 % of control | dose: 50.0 mg/kg/injection, schedule: Q01DX001 (ip), vehicle: saline 91 % of control | dose: 50.0 mg/kg/injection, schedule: Q01DX009 (ip), vehicle: saline 104 % of control | dose: 50.0 mg/kg/injection, schedule: Q01DX009 (oral), vehicle: saline 100 % of control | dose: 50.0 mg/kg/injection, schedule: Q04DX003 (ip), vehicle: saline 100 % of control | dose: 50.0 mg/kg/injection, schedule: Q08DX002 (ip), vehicle: saline 100 % of control | dose: 80.0 mg/kg/injection, schedule: Q01DX009 (ip), vehicle: distilled water + Tween-80 101 % of control | dose: 80.0 mg/kg/injection, schedule: Q03HX008 (ip), vehicle: saline 100 % of control | dose: 100.0 mg/kg/injection, schedule: Q01DX001 (ip), vehicle: saline 91 % of control | dose: 100.0 mg/kg/injection, schedule: Q01DX001 (oral), vehicle: saline 104 % of control | dose: 100.0 mg/kg/injection, schedule: Q01DX009 (ip), vehicle: saline 100 % of control | dose: 100.0 mg/kg/injection, schedule: Q01DX009 (oral), vehicle: saline 100 % of control | dose: 100.0 mg/kg/injection, schedule: Q04DX003 (ip), vehicle: saline 109 % of control | dose: 100.0 mg/kg/injection, schedule: Q08DX002 (ip), vehicle: saline 100 % of control | dose: 200.0 mg/kg/injection, schedule: Q01DX001 (ip), vehicle: saline 91 % of control | dose: 200.0 mg/kg/injection, schedule: Q01DX001 (oral), vehicle: saline 95 % of control | dose: 200.0 mg/kg/injection, schedule: Q01DX009 (oral), vehicle: saline 95 % of control | dose: 200.0 mg/kg/injection, schedule: Q04DX003 (ip), vehicle: saline 109 % of control | dose: 200.0 mg/kg/injection, schedule: Q08DX002 (ip), vehicle: saline 100 % of control | dose: 400.0 mg/kg/injection, schedule: Q01DX001 (ip), vehicle: saline 91 % of control | dose: 400.0 mg/kg/injection, schedule: Q01DX001 (oral), vehicle: saline 95 % of control | dose: 400.0 mg/kg/injection, schedule: Q08DX002 (ip), vehicle: saline 100 % of control | dose: 800.0 mg/kg/injection, schedule: Q01DX001 (ip), vehicle: saline 100 % of control | dose: 800.0 mg/kg/injection, schedule: Q01DX001 (oral), vehicle: saline 95 % of control | dose: 1600.0 mg/kg/injection, schedule: Q01DX001 (oral), vehicle: saline 104 % of control

C[NH-].C[NH-].[Cl][Pt+2][Cl]
inactive: [7] 113 % of control

CNC(=O)c1n[nH]c(C)c1N
inactive: dose: 12.5 mg/kg/injection, schedule: Q04DX003 (ip), vehicle: water 94 % of control | dose: 25.0 mg/kg/injection, schedule: Q04DX003 (ip), vehicle: water 100 % of control | dose: 50.0 mg/kg/injection, schedule: Q04DX003 (ip), vehicle: water 103 % of control | dose: 100.0 mg/kg/injection, schedule: Q04DX003 (ip), vehicle: water 103 % of control | dose: 200.0 mg/kg/injection, schedule: Q04DX003 (ip), vehicle: water 99 % of control

CCOC(=O)C1(c2ccccc2)C(=O)Oc2ccccc21 (centres undefined)
inactive: dose: 50.0 mg/kg/injection, schedule: Q01DX009 (ip), vehicle: saline with Tween-80 107 % of control | dose: 100.0 mg/kg/injection, schedule: Q01DX009 (ip), vehicle: saline with Tween-80 124 % of control | dose: 200.0 mg/kg/injection, schedule: Q01DX009 (ip), vehicle: saline with Tween-80 106 % of control

Reference: PubChem BioAssay AID330 (DTP/NCI, 2004)
